Experimental data taken from the Deep4Chem optical property database.

Assay: solvent given as SMILES

Structure (SMILES): COc1ccc(/C=C/c2ccc(-c3nnc(-c4ccc(-c5cc6ccccc6s5)cc4)o3)cc2)cc1
- absorption maximum (in CC#N): 337 nm
- absorption maximum (in CC(C)=O): 341 nm
- absorption maximum (in CCCCCCCC): 337 nm
- absorption maximum (in CCCCCCCCCCO): 346 nm
- absorption maximum (in CCCCCCCCO): 347 nm
- absorption maximum (in CCCCCO): 346 nm
- absorption maximum (in CCCO): 345 nm
- absorption maximum (in CN(C)C=O): 351 nm
- absorption maximum (in CO): 345 nm
- absorption maximum (in CS(C)=O): 348 nm

Structure (SMILES): CC(C)(C)c1ccc(-c2cc3c4c(c2)CCc2cc(-c5ccc(C(C)(C)C)cc5)cc(c2-4)CC3)cc1
- absorption maximum (in ClC(Cl)Cl): 329.71 nm

Structure (SMILES): CC1(C)c2ccccc2-c2ccc(N(c3ccccc3)c3ccc4c(c3)C(C)(C)c3cc(-c5cc6ccccc6c6c5oc5ccccc56)ccc3-4)cc21
- absorption maximum (in C1CCOC1): 382 nm

Structure (SMILES): Cc1cc2nc3c(=O)n(C)c(=O)nc-3n(C)c2cc1C
- absorption maximum (in CC#N): 444 nm

Structure (SMILES): CN(C)c1ccc(-c2ccc(-c3cc(-c4ccccc4)c(-c4ccccc4)c(-c4ccccc4)c3-c3ccccc3)cc2)cc1
- absorption maximum (in ClC(Cl)Cl): 323 nm

Structure (SMILES): CN(C)c1ccc(C#Cc2cc3ccccc3oc2=O)cc1
- absorption maximum (in ClCCl): 406 nm

Structure (SMILES): CCCCN(CCCC)c1ccc(C#Cc2cc(C#Cc3ccc(C#N)cc3)c(C#Cc3ccc(C#N)cc3)cc2C#Cc2ccc(N(CCCC)CCCC)cc2)cc1
- absorption maximum (in ClCCl): 416 nm

Structure (SMILES): CCNc1ccc2c(c1)C(C)(C)C(=O)C=C2
- absorption maximum (in O): 402 nm

Structure (SMILES): Cc1ccc(O)c(-c2nc(C)c3n2CCCC3)c1
- absorption maximum (in ClCCl): 321 nm

Structure (SMILES): F[B-]1(F)n2c(c(-c3cccs3)c3c2-c2ccccc2CC3)C=C2C(c3cccs3)=C3CCc4ccccc4C3=[N+]21
- absorption maximum (in CC#N): 636 nm

Structure (SMILES): CCCCc1cc2c3c(c1)-c1ccccc1B(c1c(C)cc(C)cc1C)N3B(c1c(C)cc(C)cc1C)c1ccccc1-2
- absorption maximum (in ClCCl): 366 nm

Structure (SMILES): C[Si](C)(C)c1ccc(-c2ccc(-c3ccc(-c4ccc(-c5ccc([Si](C)(C)C)cc5)cc4)c4nsnc34)cc2)cc1
- absorption maximum (in C1CCOC1): 401 nm

Structure (SMILES): COc1ccc2c3c(OC)c4ccccc4c(OC)c3n(C)c2c1
- absorption maximum (in C1CCCCC1): 392 nm
- absorption maximum (in CC#N): 393 nm
- absorption maximum (in CO): 392 nm
- absorption maximum (in ClCCl): 396 nm

Structure (SMILES): CCOc1ccc2c(-c3nc(-c4cccc(Br)c4)no3)cc(=O)oc2c1
- absorption maximum (in CCO): 388 nm
- absorption maximum (in ClC(Cl)Cl): 403 nm

Structure (SMILES): F[B-]1(F)OC(C#Cc2ccccc2)=C2CCc3ccccc3C2=[O+]1
- absorption maximum (in ClCCl): 431 nm

Structure (SMILES): N#Cc1c(-n2c3ccccc3c3ccccc32)cc(N2c3ccccc3C(c3ccccc3)(c3ccccc3)c3ccccc32)cc1-n1c2ccccc2c2ccccc21
- absorption maximum (in Cc1ccccc1): 368 nm

Structure (SMILES): COc1ccc(-n2nc(C#N)c(N3CCCC3)n2)cc1OC
- absorption maximum (in CC#N): 344 nm

Structure (SMILES): CC(C)[Si](C#Cc1c2nc3ccccc3nc2c(C#C[Si](C(C)C)(C(C)C)C(C)C)c2nc3c(ccc4ccccc43)nc12)(C(C)C)C(C)C
- absorption maximum (in CCCCCC): 649 nm

Structure (SMILES): C[Si](C)(C)c1ccc(-c2ccc(-c3ccc(-c4ccc(-c5ccc([Si](C)(C)C)s5)s4)c4nsnc34)s2)s1
- absorption maximum (in C1CCOC1): 513 nm

Structure (SMILES): COc1ccc(-c2nc(-c3ccc(OC)cc3)c(-c3ccc(OC)cc3)[nH]2)cc1
- absorption maximum (in CO): 295 nm

Structure (SMILES): CNCCCN1c2ccccc2CCc2ccccc21
- absorption maximum (in CC#N): 276 nm
- absorption maximum (in CO): 276 nm
- absorption maximum (in O): 275 nm

Structure (SMILES): CCCCCCCCCc1c2ccccc2cc2c1oc1c3oc4c5oc6cc7ccccc7cc6c5c5ccccc5c4c3c3ccccc3c21
- absorption maximum (in C1CCOC1): 420 nm

Structure (SMILES): CN(C)c1ccc2c3c(c(=O)oc2c1)C=c1cc2c(cc1O3)=[N+](CCC(=O)O)CCC2
- absorption maximum (in CC#N): 593 nm
- absorption maximum (in CO): 591 nm
- absorption maximum (in ClCCl): 606 nm
- absorption maximum (in O): 587 nm

Structure (SMILES): F[B-]1(F)n2c(ccc2-c2ccccc2)C(c2ccc(I)cc2)=C2C=CC(c3ccccc3)=[N+]21
- absorption maximum (in ClC(Cl)Cl): 555 nm

Structure (SMILES): CCCC(=O)c1c2c(c(C(=O)CCC)c3c1OC(CC(=O)OC)(C(=O)OC)O3)OCO2
- absorption maximum (in CC#N): 423 nm
- absorption maximum (in CCCCCC): 413 nm
- absorption maximum (in CCO): 428 nm
- absorption maximum (in CO): 428 nm
- absorption maximum (in ClCCl): 425 nm

Structure (SMILES): CCCCCCOc1ccc(N(c2ccc(OCCCCCC)cc2)c2ccc(-c3sc(-c4ccc(N(c5ccc(OCCCCCC)cc5)c5ccc(OCCCCCC)cc5)cc4)c4nc(-c5ccc(OC)cc5)c(-c5ccc(OC)cc5)nc34)cc2)cc1
- absorption maximum (in ClCCl): 590 nm

Structure (SMILES): CC(C)(C)c1ccc2c(c1)c1cc(C(C)(C)C)ccc1n2-c1ccc(C#Cc2ccc3c4ccc(C#Cc5ccc(C=C(C#N)C#N)cc5)cc4n(-c4ccc(C(F)(F)F)cc4)c3c2)cc1
- absorption maximum (in ClCCl): 355 nm

Structure (SMILES): Clc1cc(Cl)c(B2c3ccccc3Nc3ccccc32)c(Cl)c1
- absorption maximum (in ClCCl): 396 nm

Structure (SMILES): CCc1c(C)[nH]c(C2=[N+]3C(=C(C)c4c(C)c(CC)c(C)n4[B-]3(F)F)c3ccccc32)c1C
- absorption maximum (in C1CCOC1): 618 nm
- absorption maximum (in CC#N): 610 nm
- absorption maximum (in CCCCCC): 620 nm
- absorption maximum (in CO): 613 nm
- absorption maximum (in Cc1ccccc1): 625 nm
- absorption maximum (in ClCCl): 619 nm

Structure (SMILES): COC(=O)c1cc(=O)n(Cc2ccccc2)c2cc(-c3ccc(N(C)C)cc3)sc12
- absorption maximum (in CC#N): 432 nm
- absorption maximum (in ClCCl): 436 nm

Structure (SMILES): CCCCC1C(=O)c2cc(Oc3ccc(C(C)(C)C)cc3)c3c4c(Oc5ccc(C(C)(C)C)cc5)cc5c6c(cc(Oc7ccc(C(C)(C)C)cc7)c(c7c(Oc8ccc(C(C)(C)C)cc8)cc(c2c37)C1=O)c64)C1=C(C5=O)c2ccc3ccccc3[n+]2[B-](F)(F)O1 (stereo not drawn)
- absorption maximum (in ClCCl): 616 nm

Structure (SMILES): CC(C)[Si](C#Cc1c2nc3c(nc2c(C#C[Si](C(C)C)(C(C)C)C(C)C)c2nc4ccccc4nc12)C1c2ccccc2C3c2ccccc21)(C(C)C)C(C)C
- absorption maximum (in CCCCCC): 551 nm

Structure (SMILES): c1ccc(-c2nc(-c3nc(-c4ccccc4)c(-c4ccccc4)o3)oc2-c2ccccc2)cc1
- absorption maximum (in C1COCCO1): 343 nm

Structure (SMILES): CC(=O)c1c2c(cc3cc(N(C)C)ccc13)CCC2
- absorption maximum (in C1CCCCC1): 363 nm
- absorption maximum (in C1CCOC1): 370 nm
- absorption maximum (in C1COCCO1): 370 nm
- absorption maximum (in CC#N): 370 nm
- absorption maximum (in CCO): 374 nm
- absorption maximum (in CS(C)=O): 374 nm
- absorption maximum (in Cc1ccccc1): 368 nm
- absorption maximum (in ClC(Cl)Cl): 373 nm
- absorption maximum (in ClCCl): 372 nm

Structure (SMILES): CCOC(=O)c1sc(-c2ccc(-c3cc(C4CC4)c(C(=O)OCC)s3)s2)cc1C1CC1
- absorption maximum (in ClCCl): 395 nm

Structure (SMILES): CCC(C)(C)c1ccc(-c2ccc(-c3ccc(C(C)(C)CC)cc3)cc2)cc1
- absorption maximum (in C1COCCO1): 289 nm

Structure (SMILES): CCc1c(C)c2n(c1C)[B-](F)(F)[N+]1=C(c3ccc[nH]3)c3ccccc3C1=C2
- absorption maximum (in C1CCOC1): 613 nm
- absorption maximum (in CC#N): 608 nm
- absorption maximum (in CCCCCC): 614 nm
- absorption maximum (in CO): 609 nm
- absorption maximum (in Cc1ccccc1): 620 nm
- absorption maximum (in ClCCl): 616 nm

Structure (SMILES): CCCN1c2ccccc2Sc2cc(C#CC3=C4C=CC=[N+]4[B-](F)(F)n4cccc43)ccc21
- absorption maximum (in ClCCl): 540 nm

Structure (SMILES): CN(C)c1ccc(N2c3c(sc4ccccc34)Sc3sc4ccccc4c32)cc1
- absorption maximum (in ClCCl): 309 nm

Structure (SMILES): CCN(CC)c1ccc(-n2c(C)ccc2C)cc1
- absorption maximum (in CC#N): 304 nm
- absorption maximum (in CCCCCC): 310 nm

Structure (SMILES): C(=C\c1ccc(/C=C/c2cccs2)s1)/c1cccs1
- absorption maximum (in CC#N): 423 nm

Structure (SMILES): COc1ccc(N2c3ccc4ccccc4c3-c3c4ccccc4cc[n+]3[B-]2(c2ccccc2)c2ccccc2)cc1
- absorption maximum (in Cc1ccccc1): 520 nm

Structure (SMILES): CC(C)(C)c1ccc2ccc3c(C(C)(C)C)ccc4ccc1c2c43
- absorption maximum (in CCCCCC): 346 nm
- absorption maximum (in CO): 345 nm
- absorption maximum (in ClCCl): 348 nm

Structure (SMILES): CCCCCCOc1cc(N(CC)CC)ccc1/C=C/C(=C(C#N)C#N)c1ccc2c(c1)c1ccccc1n2CC
- absorption maximum (in ClCCl): 504 nm
